Test results as given in patent US7018817B1, “Process for the preparation of compounds with enhanced optical purity” (DSM IP Assets B.V., priority 1998, dated 2006).

What was measured:
[1] = target: T1, PDF(Fe) (peptide deformylase) (Escherichia coli, UniProt P0A6K3); experiment: Enantioselective enzymatic deformylation of N-formyl compounds by PDF(Fe), HPLC analysis; type: biochemical, E. coli
T1 construct: made in house; host or cells: overproducing E. coli cells
Description: PDF(Fe) was isolated from overproducing E. coli cells grown at 30° C. in 1.6 l TB medium for 14–16 h. About 13 g (wet weight) cell paste were suspended in 26 ml buffer (20 mM Hepes/KOH, 100 mM KF, pH 7.7 supplemented with 10 μg/ml catalase from bovine liver (Boehringer Mannheim) and 1 mM AEBSF, disintegrated by sonication (Branson B12, 20 min) at 0° C. and centrifuged at 200.000 g for 1 h. The clear supernatant (1.3 g of protein; according to biurete reaction) was mixed with 1.3 ml 10% (w/v) Polymin G-35 (BASF) adjusted to pH 7.7 and centrifuged at 40.000 g for 10 min. The supernatant was applied to a 20 ml Met-Lys-Sepharose column that had been equilibrated with 20 mM Hepes/KOH, 100 mM KF, 0.2 mM TCEP, pH 7.7. After washing with 120 ml of 20 mM Hepes/KOH, 100 mM KF, 0.2 mM TCEP, pH 7.7, PDF(Fe) was eluted with 150 ml 20 mM Hepes/KOH, 100 mM KCl, 0.2 mM TCEP, pH 7.7. The protein containing fractions were concentrated by ultrafiltration using an Amicon PM10 membrane (yield: 140 mg protein, 1400 U/mg; determined according to Groche et al.). After adjustment of the TCEP concentration to 1 mM and protein concentration to 40 mg/ml, the PDF(Fe) stock solution (40 mg/ml=2 mM) was stored frozen at −60° C. After thawing, the PDF(Fe) stock solution could be used directly in the deformylation experiments described below. If however solutions with lower PDF(Fe) concentrations were required for these deformylation experiments, the PDF stock solution was diluted further in 20 mM Hepes/KOH, pH 7.7, 100 mM KCl, 1 mg/ml bovine serum albumin, 10 μg/ml catalase solution.
In all cases HPLC conditions had to be developed in which the two deformylated isomers were separated from each other and from the formylated isomers. To this end two different techniques were applied that is method 1 and method 2, as described below.
From the quantities of deformylated isomers in the samples after various reaction times, both the initial deformylation rate constant (kf and ks in M^−1s^−1) could be calculated for both enantiomers, as well as the respective ee values. The enantioselectivity of the enzyme (E value) was calculated by taking the ratio of kf/ks and is given for all Examples in table 1, as well as the maximum ee value (eemax) observed during the experiments.
A Crownpak CR(+) column (4×150 mm) was used. Samples (5 μl) withdrawn from the deformylation mixture were mixed with 95 μl aqueous HClO4 (10 mM) to inactivate PDF(Fe). Following a brief centrifugation, 20 μl of the supernatant were applied to the Crownpak CR(+) column. For specific chromatographic conditions and retention times see table 2.
Method 2 (Precolumn derivatization with o-phthaldialdehyde (OPA) and N-acetyl-L-cysteine (NAC). Samples (25 μl) withdrawn from the deformylation mixture were mixed with 25 μl aqueous HClO4 (100 mM) to inactivate PDF(Fe). Following a brief centrifugation, 40 μl of the supernatant were added to 80 μl 1 M aqueous H3BO3/NaOH pH 9.4, subsequently 20 μl OPA reagent (consisting of OPA in H2O/CH3OH 1:1 v/v with a concentration as indicated in table 3) and 20 μl NAC reagent (consisting of NAC in H2O/CH3OH 1:1 v/v with a concentration as indicated in table 3) was added. After the time indicated in table 3 derivatization was terminated by addition of 80 μl (250 mM) aqueous H3PO4, and 20 μl of the solution were instantaneously applied to a Nucleosil 120-5 C18 (250×4 mm) column. Temperature was always ambient and detection was spectrophotometric using a wavelength of 257 nm and/or 340 nm. The used eluent was a mixture of aqueous 0.05 M H3PO4 brought at pH 7.0 with 1 M NaOH, and a percentage of acetonitrile as indicated in table 3. For derivatization of valine aminonitrile borate buffer was adjusted to pH 11 and addition of NAC reagent was done 10 min after OPA reagent had been added. Concentration of H3PO4 used for termination was 500 mM. Derivatization and separation conditions as well as the observed retention times for the deformylated compounds analyzed are compiled in table 3. […]

L-aminoacylases = settings: U.S. Pat. No. 4,745,067; cited from earlier work
[2] = tested on: known peptide deformylases; settings: Rajagopalan et al., Biochemistry 1997; cited from earlier work
[3] = Method A: 100 mM MOPS/NaOH, 2 M Li2SO4, pH 7.2, 37° C.
[4] = Method B: absence of Li2SO4, 100 mM MOPS/NaOH, 250 mM NaCl, 0.1 mg/ml catalase, pH 7.2, 37° C.
[5] = Method C: absence of Li2SO4, 100 mM MES/NaOH, pH 6.2, 37° C.

T1 sequence (P0A6K3 whole entry): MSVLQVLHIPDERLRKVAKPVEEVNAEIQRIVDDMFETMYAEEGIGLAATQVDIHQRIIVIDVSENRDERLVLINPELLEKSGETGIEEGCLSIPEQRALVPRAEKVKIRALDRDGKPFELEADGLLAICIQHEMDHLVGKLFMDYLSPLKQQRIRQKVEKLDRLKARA

Molecule | kf (rate of deformylation of the most rapidly deformylated enantiomer) [1, 3] | ks (rate of deformylation of the least rapidly deformylated enantiomer) [1, 3] | E (enantioselectivity, kf/ks) [1, 3] | eemax (maximum ee value observed) [1, 3] | E (enantioselectivity, kf/ks) [1, 4] | eemax (maximum ee value observed) [1, 4] | kf (rate of deformylation of the most rapidly deformylated enantiomer) [1, 4] | ks (rate of deformylation of the least rapidly deformylated enantiomer) [1, 4] | other results
N-acetyl-phenylglycine amide [Comparative Experiment A, reference compound] | <0,001 M^−1s^−1 | <0.001 M⁻¹ s⁻¹ |  |  |  |  |  |  | 
O=CNC(CO)c1ccccc1 (stereo not drawn) [Example 6, N-formyl-phenylglycinol] | 6,3 M^−1s^−1 | 0.34 M⁻¹ s⁻¹ | 18,5 | 93,3% | 23,8 | 90,5% | 0,69 M^−1s^−1 | 0.029 M⁻¹ s⁻¹ | 
CSCC[C@H](NC=O)C(=O)O [N-formyl-L-methionine] |  |  |  |  |  |  |  |  | activity of L-aminoacylases towards the substrate (L-aminoacylases): low
CSCC[C@H](NC=O)C(=O)O [N-formylmethionine] |  |  |  |  |  |  |  |  | deformylase activity of known peptide deformylases towards the substrate [2]: no or little activity
O=CN1CCC[C@H]1C(=O)O [Comparative Experiment B, N-formyl-proline, reference compound] | <0,004 M^−1s^−1 | <0.004 M⁻¹ s⁻¹ |  |  |  |  |  |  | 
CC(NC=O)c1cccc2ccccc12 (stereo not drawn) [Example 12, N-formyl-1-(1-naphthyl)-ethylamine] | 0,45 M^−1s^−1 | 0.03 M⁻¹ s⁻¹ | 15 | 90% |  |  |  |  | 
CC(C)C(C#N)NC=O (stereo not drawn) [Example 10, N-formyl-valine aminonitrile] | 29,7 M^−1s^−1 | 0.62 M⁻¹ s⁻¹ | 47,9 | 95,5% |  |  |  |  | 
COc1cccc(CC(C#N)NC=O)c1 (stereo not drawn) [Example 11, N-formyl-m-methoxy-phenylalanine aminonitrile] |  |  |  |  | 685 | 99,0% | 1370 M⁻¹ s⁻¹ | 2 M⁻¹ s⁻¹ | 
O=CNC(C(=O)O)c1ccccc1 (stereo not drawn) [Example 1, N-formyl-phenylglycine] |  |  |  |  | 2255 | 99,6% | 10,6 M^−1s^−1 | 0.0047 M⁻¹ s⁻¹ | 
C[C@@H](CO)NC=O [Example 8, N-formyl-alaninol] | 0,22 M^−1s^−1 | 0.018 M⁻¹ s⁻¹ | 12 | 85,6% |  |  |  |  | 
O=CNC(CC(=O)O)c1ccccc1 (stereo not drawn) [Example 2, N-formyl-3-amino-3-phenyl-propionic acid] |  |  |  |  | >1775 | 100% | 7,1 M^−1s^−1 | <0.004 M⁻¹ s⁻¹ | 
N#CC(Cc1ccccc1)NC=O (stereo not drawn) [Example 9, N-formyl-phenylalanine aminonitrile] |  |  |  |  |  |  |  |  | E (enantioselectivity, kf/ks) [1, 5]: 880; eemax (maximum ee value observed) [1, 5]: 98,8%; kf (rate of deformylation of the most rapidly deformylated enantiomer) [1, 5]: 880 M⁻¹ s⁻¹; ks (rate of deformylation of the least rapidly deformylated enantiomer) [1, 5]: 1 M⁻¹ s⁻¹
